Drawing on ChEMBL document CHEMBL4616688, “PROTAC Compounds Targeting TRK for Use in Cancer Therapeutics” (ACS Med Chem Lett, 2020), this text covers IC50 for 10 compounds.

As a reminder, the IC50 is the concentration needed to halve the response being measured.

The subject of the experiment is KM12. The experiment can be described thus: Antiproliferative activity against human KM12 cells expressing TPM3-TRKA assessed as reduction in cell viability measured after 3 days by Celltiter-Glo assay. Type of experiment: functional, cell-based. Particulars: KM12, 72 h.
`O=C(CN1CCN(c2cccc(-c3cnc4ccc(N5CCC[C@@H]5c5cccc(F)c5)nn34)n2)CC1)NCCOCCNc1cccc2c1C(=O)N(C1CCC(=O)NC1=O)C2=O` (stereo not given in full): the IC50 was found to be 3.8 nM. For `O=C(CN1CCN(c2cccc(-c3cnc4ccc(N5CCC[C@@H]5c5cccc(F)c5)nn34)n2)CC1)NCCNc1ccc2c(c1)C(=O)N(C1CCC(=O)NC1=O)C2=O` (stereo not given in full) the value was 0.9 nM; for `O=C1CCC(N2C(=O)c3ccc(NCCCCC(=O)N4CCN(c5cccc(-c6cnc7ccc(N8CCC[C@@H]8c8cccc(F)c8)nn67)n5)CC4)cc3C2=O)C(=O)N1` (stereo not given in full), 0.9 nM; for `O=C1CCC(N2C(=O)c3ccc(NCCN4CCN(c5cccc(-c6cnc7ccc(N8CCC[C@@H]8c8cccc(F)c8)nn67)n5)CC4)cc3C2=O)C(=O)N1` (stereo not given in full), 3.4 nM. Regarding `O=C1CCC(N2C(=O)c3ccc(NCCOCCOCCOCCOCCC(=O)N4CCN(c5ccc(C(=O)Nc6n[nH]c7ccc(Cc8cc(F)cc(F)c8)cc67)c(NC6CCOCC6)c5)CC4)cc3C2=O)C(=O)N1` (stereo not given), the IC50 was found to be 1.6 nM. For the compound `O=C1CCC(N2C(=O)c3ccc(N4CC(C(=O)N5CCN(c6cccc(-c7cnc8ccc(N9CCC[C@@H]9c9cccc(F)c9)nn78)n6)CC5)C4)cc3C2=O)C(=O)N1` (stereo not given in full), the 50% inhibitory concentration (IC50) amounted to 2 nM.

Take `OC1CCN(c2cc(-c3cccc(-c4cnc5ccc(N6CCC[C@@H]6c6cccc(F)c6)nn45)n3)ccn2)CC1`: the IC50 came out at 46.7 nM. Then `O=C1CCC(N2C(=O)c3cccc(NCCCC(=O)N4CCN(c5ccc(C(=O)Nc6n[nH]c7ccc(Cc8cc(F)cc(F)c8)cc67)c(NC6CCOCC6)c5)CC4)c3C2=O)C(=O)N1` (stereo not given), with 1.5 nM.

As to `O=C(CN1CCN(c2cccc(-c3cnc4ccc(N5CCC[C@@H]5c5cccc(F)c5)nn34)n2)CC1)NCCOCCNc1ccc2c(c1)C(=O)N(C1CCC(=O)NC1=O)C2=O` (stereo not given in full), the IC50 came out at 0.9 nM. For `CN1CCN(c2ccc(C(=O)Nc3n[nH]c4ccc(Cc5cc(F)cc(F)c5)cc34)c(NC3CCOCC3)c2)CC1` [ENTRECTINIB], the IC50 came to 4.3 nM.
